Assay results reported in patent US9434734B2, “Substituted pyrazoloquinazolinones and pyrroloquinazolinones as allosteric modulators of group II metabotropic glutamate receptors” (Domain Therapeutics, priority 2012, dated 2016).
Counter-ions that a name gives are not always drawn.

Columns and labels:
[1] = target: T1, human mGluR2 (hmGluR2) transiently over-expressed in HEK-293 cells (Homo sapiens, UniProt Q14416); test: Human mGluR2 negative allosteric modulator evaluation using Ca++ functional assay (agonist and NAM activity); assay type: cell-based; conditions: hmGluR2 in HEK-293 cells, EC80 glutamate, Fluo4AM calcium readout; read-out: mGluR2 negative allosteric modulator activity IC50
T1 construct: expressed in transfected cells; host or cells: HEK-293 cells, transient co-transfection by electroporation
T1 sequence (Q14416 19-872): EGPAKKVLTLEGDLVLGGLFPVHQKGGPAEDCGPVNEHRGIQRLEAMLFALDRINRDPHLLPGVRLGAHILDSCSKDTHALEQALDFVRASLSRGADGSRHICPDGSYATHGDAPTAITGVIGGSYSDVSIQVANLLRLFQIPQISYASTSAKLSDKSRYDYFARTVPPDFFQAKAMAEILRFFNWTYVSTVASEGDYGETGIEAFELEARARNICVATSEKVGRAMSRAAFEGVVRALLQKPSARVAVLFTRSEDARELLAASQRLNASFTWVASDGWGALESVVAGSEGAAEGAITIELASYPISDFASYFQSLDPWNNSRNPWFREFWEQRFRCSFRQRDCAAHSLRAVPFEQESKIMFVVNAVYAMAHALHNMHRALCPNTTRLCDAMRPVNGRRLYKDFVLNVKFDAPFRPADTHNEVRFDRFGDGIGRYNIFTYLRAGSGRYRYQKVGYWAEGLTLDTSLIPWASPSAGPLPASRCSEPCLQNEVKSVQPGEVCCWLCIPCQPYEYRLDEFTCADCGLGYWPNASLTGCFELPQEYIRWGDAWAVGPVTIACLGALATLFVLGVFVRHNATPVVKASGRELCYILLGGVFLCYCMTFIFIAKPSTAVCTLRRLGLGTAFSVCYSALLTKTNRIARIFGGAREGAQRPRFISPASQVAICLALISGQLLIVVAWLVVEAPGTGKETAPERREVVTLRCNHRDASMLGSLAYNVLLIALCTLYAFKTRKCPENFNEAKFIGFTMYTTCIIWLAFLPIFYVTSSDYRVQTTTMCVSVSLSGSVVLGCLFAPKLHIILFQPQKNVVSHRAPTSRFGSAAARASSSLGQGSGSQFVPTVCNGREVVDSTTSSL
Description: Human mGluR2 Negative Allosteric Modulator Evaluation Using Ca^++ Functional Assay
Compounds of the present invention were tested successively for their agonist and negative allosteric modulator activities on human mGluR2 (hmGluR2) transiently over-expressed in HEK-293 cells. They exert agonist activity if they are able to activate mGluR2 by themselves, i.e., in absence of the endogenous agonist glutamate; and they exert negative allosteric modulator activity if they decrease the action of the endogenous agonist glutamate.
HEK-293 cells were maintained in Modified Eagle's Medium supplemented with 10% Foetal Calf Serum, 1% Penicillin/Streptomycin and 1% nonessential amino acids at 37° C./5% CO2.
Cells were plated after transfection onto polyornithine coated, clear bottom, black-walled, 96-well plates and cultured for 24 h.
Receptor activity was detected by changes in intracellular calcium measured using the fluorescent Ca^2+ sensitive dye, Fluo4AM (Molecular Probes).
The day of the assay, medium was aspirated and replaced during 3 hours by medium without serum supplemented with 1% Glutamax, 1% Penicillin/Streptomycin and 1% nonessential amino acids. Then, cells were washed with freshly prepared buffer B (HBSS 1× (PAA), Hepes 20 mM, MgSO4-7H2O 1 mM, Na2CO3 3.3 mM, CaCl2-2H2O 1.3 mM, 0.5% BSA, Probenecid 2.5 mM) and loaded at 37° C./5% CO2 for 1.5 hours with buffer B containing 1 μM Fluo4AM, 0.1 mg/mL Pluronic Acid, 7 μg/mL Glutamate Pyruvate Transaminase and 2 mM sodium pyruvate. Afterwards cells were washed twice with buffer B and 50 μL of this buffer were added to each well.
Agonist and negative allosteric modulator activities of compounds were consecutively evaluated on the same cells plate. […] Then, the cells were stimulated by an EC80 glutamate concentration and fluorescence was recorded for additional 60 s. EC80 glutamate concentration is the concentration giving 80% of the maximal glutamate response. Agonist and/or negative allosteric modulator activity(ies) were evaluated in comparison to basal signal or signal evoked by EC80 glutamate alone, respectively.
For potency determination, a dose-response test was performed using 8 concentrations of each compound of the invention. Dose-response curves were fitted using the sigmoidal dose-response (variable slope) analysis in GraphPad Prism program (Graph Pad Inc) and EC50 of agonist/IC50 of negative allosteric modulator activity was calculated. Dose-response experiments were all performed in duplicate, two times independently.

| Compound | IC50 [1] | melting point |
| --- | --- | --- |
| Cc1cc(-c2ccc3c(=O)n(C)c4cc(C5CCCO5)nn4c3c2)cc(C)n1 (stereo not shown) [Example 107, 8-(2,6-Dimethyl-pyridin-4-yl)-4-methyl-2-(tetrahydro-furan-2-yl)-4H-pyrazolo[1,5-a]quinazolin-5-one] | < 1000 nM | – |
| Cn1c(=O)c2ccc(-c3cccc(S(N)(=O)=O)c3)cc2n2nc(C3CCOCC3)cc12 [Example 100, 3-[4-Methyl-5-oxo-2-(tetrahydro-pyran-4-yl)-4,5-dihydro-pyrazolo[1,5-a]quinazolin-8-yl]-benzenesulfonamide] | < 1000 nM | – |
| Cc1cc(-c2cc3n(C)c(=O)c4ccc(-c5cnccc5C)cc4n3n2)cc(C)n1 [Example 119, 2-(2,6-Dimethyl-pyridin-4-yl)-4-methyl-8-(4-methyl-pyridin-3-yl)-4H-pyrazolo[1,5-a]quinazolin-5-one] | < 1000 nM | – |
| Cl.[2H]C([2H])([2H])n1c(=O)c2ccc(-c3ccc(N)nc3)cc2n2nc(CCOC)cc12 [Example 55, 8-(6-Amino-pyridin-3-yl)-2-(2-methoxy-ethyl)-4-methyl(D3)-4H-pyrazolo[1,5-a]quinazolin-5-one] | < 1000 nM | – |
| Cc1cc(-c2ccc3c(=O)n(C)c4cc(-c5cc(C)nc(C)c5)nn4c3c2)cc(C)n1 [Example 114, 2,8-Bis-(2,6-dimethyl-pyridin-4-yl)-4-methyl-4H-pyrazolo[1,5-a]quinazolin-5-one] | < 1000 nM | – |
| Cc1cncc(-c2ccc3c(=O)n(C)c4cc(-c5cc(C)nc(C)c5)nn4c3c2)c1 [Example 118, 2-(2,6-Dimethyl-pyridin-4-yl)-4-methyl-8-(5-methyl-pyridin-3-yl)-4H-pyrazolo[1,5-a]quinazolin-5-one] | < 1000 nM | – |
| Cc1cc(-c2cc3n(C)c(=O)c4ccc(-c5cccnc5)cc4n3n2)cc(C)n1 [Example 116, 2-(2,6-Dimethyl-pyridin-4-yl)-4-methyl-8-pyridin-3-yl-4H-pyrazolo[1,5-a]quinazolin-5-one] | < 1000 nM | – |
| Cl.[2H]C([2H])([2H])n1c(=O)c2ccc(-c3cc(C)nc(C)c3)cc2n2nc(C3CCCC3)cc12 [Example 68, 2-Cyclopentyl-8-(2,6-dimethyl-pyridin-4-yl)-4-methyl(D3)-4H-pyrazolo[1,5-a]quinazolin-5-one] | < 1000 nM | – |
| Cc1ccc(-c2ccc3c(=O)n(C)c4cc(-c5cc(C)nc(C)c5)nn4c3c2)cn1 [Example 117, 2-(2,6-Dimethyl-pyridin-4-yl)-4-methyl-8-(6-methyl-pyridin-3-yl)-4H-pyrazolo[1,5-a]quinazolin-5-one] | < 1000 nM | – |
| Cc1cc(-c2cc3n(C)c(=O)c4ccc(-c5cccnc5C)cc4n3n2)ccn1 [Example 132, 2-(2-methyl-pyridin-4-yl)-4-methyl-8-(2-methyl-pyridin-3-yl)-4H-pyrazolo[1,5-a]quinazolin-5-one] | < 1000 nM | – |
| Cc1cc(-c2cc3n(C)c(=O)c4ccc(-c5cc(C)nc(C)c5)cc4n3n2)ccn1 [Example 133, 8-(2,6-Dimethyl-pyridin-4-yl)-4-methyl-2-(2-methyl-pyridin-4-yl)-4H-pyrazolo[1,5-a]quinazolin-5-one] | < 1000 nM | – |
| Cn1c(=O)c2ccc(-c3ccc(N)nc3)cc2n2nc(C(C)(C)C)cc12 [Example 52, 8-(6-Amino-pyridin-3-yl)-2-tert-butyl-4-methyl-4H-pyrazolo[1,5-a]quinazolin-5-one] | < 1000 nM | – |
| Cc1cc(-c2cc3n(C)c(=O)c4ccc(-c5cccnc5C)cc4n3n2)ccn1 (as salt: salt) [Example 132, 2-(2-methyl-pyridin-4-yl)-4-methyl-8-(2-methyl-pyridin-3-yl)-4H-pyrazolo[1,5-a]quinazolin-5-one] | – | > 250 °C |
| Cl.Cn1c(=O)c2ccc(-c3ccc(N)nc3C(F)(F)F)cc2n2nc(-c3ccccc3)cc12 | – | > 250 °C |
| Cc1ccc(-c2ccc3c(=O)n(C)c4cc(C5CCOCC5)nn4c3c2)c(C)n1.Cl | – | 231 to 235 °C |
| COCc1cc2n(C)c(=O)c3ccc(-c4cc(C)nc(C)c4)cc3n2n1.Cl | – | > 250 °C |
| Cc1ncccc1-c1ccc2c(=O)n(C)c3cc(-c4cnn(C)c4)nn3c2c1.Cl | – | 169 to 187 °C |
| Cc1cc(-c2ccc3c(=O)n(CC(F)(F)F)c4cc(C5CCOCC5)nn4c3c2)cc(C)n1.Cl | – | > 250 °C |
| COc1cccc(-c2ccc3c(=O)n(C)c4cc(-c5ccccc5)nn4c3c2)c1 [Example 11, 8-(3-Methoxy-phenyl)-4-methyl-2-phenyl-4H-pyrazolo[1,5-a]quinazolin-5-one] | – | 182 to 185 °C |

| Compound | IC50 [1] | melting point |
| --- | --- | --- |
| Cl.Cn1c(=O)c2ccc(-c3ccc(N)nc3)cc2n2nc(-c3ccccc3)cc12 [Example 2, 8-(6-Amino-pyridin-3-yl)-4-methyl-2-phenyl-4H-pyrazolo[1,5-a]quinazolin-5-one] | – | 241 to 244 °C |
| Cn1c(=O)c2ccc(-c3ccc(F)cc3)cc2n2nc(-c3ccccc3)cc12 [Example 12, 8-(4-Fluoro-phenyl)-4-methyl-2-phenyl-4H-pyrazolo[1,5-a]quinazolin-5-one] | – | 178 to 180 °C |
| Cc1cc(-c2cc3n(C)c(=O)c4ccc(-c5cc(C)nc(C)c5)cc4n3n2)ccn1 (as salt: salt) [Example 133, 8-(2,6-Dimethyl-pyridin-4-yl)-4-methyl-2-(2-methyl-pyridin-4-yl)-4H-pyrazolo[1,5-a]quinazolin-5-one] | – | > 250 °C |
| CCc1ncccc1-c1ccc2c(=O)n(C)c3cc(-c4cc(C)nc(C)c4)nn3c2c1 (as salt: salt) [Example 120, 2-(2,6-Dimethyl-pyridin-4-yl)-8-(2-ethyl-pyridin-3-yl)-4-methyl-4H-pyrazolo[1,5-a]quinazolin-5-one] | – | > 250 °C |
| Cl.Cn1c(=O)c2ccc(-c3ccc(N)nn3)cc2n2nc(C3CCOCC3)cc12 | – | 140 to 146 °C |
| Cl.Cn1c(=O)c2ccc(-c3ccc(N4CCCCC4)nc3)cc2n2nc(-c3ccccc3)cc12 | – | 200 to 203 °C |
| Cc1ncccc1-c1ccc2c(=O)n(C)c3cc(C4CCOCC4)nn3c2c1.Cl | – | 167 to 169 °C |
| Cc1cc(-c2cc3n(C)c(=O)c4ccc(-c5ccn[nH]5)cc4n3n2)cc(C)n1.Cl | – | > 250 °C |
| CC(C)Cn1c(=O)c2ccc(-c3cccc(S(=O)(=O)N(C)C)c3)cc2n2nc(-c3ccccc3)cc12 [Example 41, 3-(4-isobutyl-5-oxo-2-phenyl-4,5-dihydro-pyrazolo[1,5-a]quinazolin-8-yl)-N,N-dimethyl-benzenesulfonamide] | – | 159 to 163 °C |
| Cn1c(=O)c2ccc(-c3cccc(-c4nn[nH]n4)c3)cc2n2nc(C3CCOCC3)cc12 (as salt: sodium) [Example 96, 4-Methyl-2-(tetrahydro-pyran-4-yl)-8-[3-(2H-tetrazol-5-yl)-phenyl]-4H-pyrazolo[1,5-a]quinazolin-5-one] | – | 219 to 227 °C |
| Cc1cc(-c2ccc3c(=O)n(C)c4cc(-c5cc(C)nc(C)c5)nn4c3c2)cc(C)n1 (as salt: salt) [Example 114, 2,8-Bis-(2,6-dimethyl-pyridin-4-yl)-4-methyl-4H-pyrazolo[1,5-a]quinazolin-5-one] | – | > 250 °C |
| COCc1cc2n(C)c(=O)c3ccc(-c4ccc(N)nc4)cc3n2n1.Cl | – | 235 to 242 °C |
| Cl.Cn1c(=O)c2ccc(-c3ccc(N4CCOCC4)nc3)cc2n2nc(-c3ccccc3)cc12 | – | 194 to 196 °C |
| Cn1c(=O)c2ccc(-c3cccnc3C(F)(F)F)cc2n2nc(-c3ccnc(C(F)(F)F)c3)cc12 [Example 142, 4-Methyl-2-(2-trifluoromethyl-pyridin-4-yl)-8-(2-trifluoromethyl-pyridin-3-yl)-4H-pyrazolo[1,5-a]quinazolin-5-one] | – | > 250 °C |
| Cc1cncc(-c2ccc3c(=O)n(C)c4cc(-c5cc(C)nc(C)c5)nn4c3c2)c1 (as salt: salt) [Example 118, 2-(2,6-Dimethyl-pyridin-4-yl)-4-methyl-8-(5-methyl-pyridin-3-yl)-4H-pyrazolo[1,5-a]quinazolin-5-one] | – | > 250 °C |
| Cc1ncccc1-c1ccc2c(=O)n(C)c3cc(-c4cccnc4)nn3c2c1 (as salt: salt) [Example 134, 4-Methyl-8-(2-methyl-pyridin-3-yl)-2-pyridin-3-yl-4H-pyrazolo[1,5-a]quinazolin-5-one] | – | > 250 °C |
| Cc1cc(N)nc(C)c1-c1ccc2c(=O)n(C)c3cc(-c4ccccc4)nn3c2c1.Cl | – | > 250 °C |
| Cl.Cn1c(=O)c2ccc(-c3ccncc3)cc2n2nc(C3CCOCC3)cc12 | – | 218 to 223 °C |
